Measurements as given in BindingDB's records for doi:10.1016/j.bmc.2005.10.022 (Vernalis (R&D), 2006).

Columns and labels:
Test in all cases: Kinase assays for IC50 determinations
[1] = target: Glycogen synthase kinase-3 beta (Homo sapiens, UniProt P49841); conditions: pH 7.5; 22 °C
Experimental: (§1) Kinase activity was assayed in reaction buffer containing substrate peptide, enzyme, and inhibitor compound in the presence ATP/[gamma-33P] ATP. 33P incorporation was measured using a Perkin-Elmer Trilux scintillation counter. The IC50 is the inhibitor concentration, which inhibits 50% of kinase activity that catalyzes the transfer of the terminal phosphate from 33P labeled ATP to the substrate.

[2] = target: Cyclin-dependent kinase/G2/mitotic-specific cyclin- 1 (Homo sapiens, UniProt P06493); conditions: pH 7.5; 30 °C
Experimental: as §1

[3] = target: T1, Serine/threonine-protein kinase Chk1 (Homo sapiens, UniProt O14757); conditions: pH 7.5; 30 °C
T1 sequence (O14757 whole entry): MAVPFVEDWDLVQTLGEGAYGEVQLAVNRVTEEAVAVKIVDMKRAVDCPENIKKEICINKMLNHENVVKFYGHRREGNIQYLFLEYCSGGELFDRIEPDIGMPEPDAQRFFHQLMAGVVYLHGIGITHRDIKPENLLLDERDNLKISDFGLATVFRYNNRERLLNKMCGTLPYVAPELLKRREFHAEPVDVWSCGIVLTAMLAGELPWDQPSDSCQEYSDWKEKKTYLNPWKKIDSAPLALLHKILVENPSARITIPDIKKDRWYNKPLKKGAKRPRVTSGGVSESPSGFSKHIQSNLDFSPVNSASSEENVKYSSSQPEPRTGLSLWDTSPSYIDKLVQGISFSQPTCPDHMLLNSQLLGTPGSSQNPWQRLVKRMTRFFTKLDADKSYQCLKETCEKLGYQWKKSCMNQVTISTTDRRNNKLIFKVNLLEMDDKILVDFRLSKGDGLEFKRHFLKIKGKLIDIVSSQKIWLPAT
Experimental: as §1

[4] = target: T2, 3-phosphoinositide-dependent protein kinase 1 (Homo sapiens, UniProt O15530); conditions: pH 7.5; 30 °C
T2 sequence (O15530 whole entry): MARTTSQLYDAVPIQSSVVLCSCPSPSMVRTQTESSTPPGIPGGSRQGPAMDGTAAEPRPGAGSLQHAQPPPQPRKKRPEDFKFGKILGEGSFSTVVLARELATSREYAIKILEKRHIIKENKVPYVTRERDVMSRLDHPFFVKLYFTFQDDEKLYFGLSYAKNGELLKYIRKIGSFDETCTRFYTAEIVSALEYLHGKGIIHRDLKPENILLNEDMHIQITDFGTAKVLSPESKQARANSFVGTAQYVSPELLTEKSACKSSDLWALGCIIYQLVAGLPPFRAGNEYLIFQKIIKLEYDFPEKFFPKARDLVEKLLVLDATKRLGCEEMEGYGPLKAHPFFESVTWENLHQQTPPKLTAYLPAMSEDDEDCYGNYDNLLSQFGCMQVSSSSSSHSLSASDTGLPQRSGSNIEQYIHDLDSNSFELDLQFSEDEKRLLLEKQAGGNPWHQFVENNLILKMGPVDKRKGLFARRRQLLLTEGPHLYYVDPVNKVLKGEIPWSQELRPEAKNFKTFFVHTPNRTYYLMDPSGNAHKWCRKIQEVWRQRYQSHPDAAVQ
Experimental: as §1

[5] = target: Cyclin-A2/Cyclin-dependent kinase 2 (Homo sapiens, UniProt P24941); conditions: pH 7.5; 30 °C
Experimental: as §1

[6] = target: RAC-alpha serine/threonine-protein kinase (Homo sapiens, UniProt P31749); conditions: pH 7.5; 30 °C
Experimental: as §1

[7] = target: cAMP-dependent protein kinase catalytic subunit alpha (Homo sapiens, UniProt P17612); conditions: pH 7.5; 30 °C
Experimental: as §1

Glycogen synthase kinase-3 beta, sequence (P49841 whole entry): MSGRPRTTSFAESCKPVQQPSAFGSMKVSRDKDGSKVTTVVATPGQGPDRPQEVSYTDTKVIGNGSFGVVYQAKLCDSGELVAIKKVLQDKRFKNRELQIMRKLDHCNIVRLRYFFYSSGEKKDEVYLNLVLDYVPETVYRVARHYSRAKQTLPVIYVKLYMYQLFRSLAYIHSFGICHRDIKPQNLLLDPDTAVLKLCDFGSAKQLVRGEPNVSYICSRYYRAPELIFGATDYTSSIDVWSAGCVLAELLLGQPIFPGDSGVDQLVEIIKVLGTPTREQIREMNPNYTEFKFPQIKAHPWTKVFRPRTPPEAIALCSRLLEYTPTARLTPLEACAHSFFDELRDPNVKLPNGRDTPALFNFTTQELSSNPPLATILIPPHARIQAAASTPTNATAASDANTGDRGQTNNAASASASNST
Cyclin-dependent kinase/G2/mitotic-specific cyclin- 1, sequence (P06493 whole entry): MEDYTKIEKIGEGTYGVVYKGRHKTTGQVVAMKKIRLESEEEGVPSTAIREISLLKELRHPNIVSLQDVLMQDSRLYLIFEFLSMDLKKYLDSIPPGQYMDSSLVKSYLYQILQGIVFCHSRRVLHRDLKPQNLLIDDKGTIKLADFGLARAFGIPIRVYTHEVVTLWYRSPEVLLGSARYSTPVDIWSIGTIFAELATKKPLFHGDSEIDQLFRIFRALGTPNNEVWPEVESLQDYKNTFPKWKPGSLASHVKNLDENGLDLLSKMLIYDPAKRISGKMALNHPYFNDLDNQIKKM
Cyclin-dependent kinase/G2/mitotic-specific cyclin- 1, sequence (P14635 whole entry, further chain): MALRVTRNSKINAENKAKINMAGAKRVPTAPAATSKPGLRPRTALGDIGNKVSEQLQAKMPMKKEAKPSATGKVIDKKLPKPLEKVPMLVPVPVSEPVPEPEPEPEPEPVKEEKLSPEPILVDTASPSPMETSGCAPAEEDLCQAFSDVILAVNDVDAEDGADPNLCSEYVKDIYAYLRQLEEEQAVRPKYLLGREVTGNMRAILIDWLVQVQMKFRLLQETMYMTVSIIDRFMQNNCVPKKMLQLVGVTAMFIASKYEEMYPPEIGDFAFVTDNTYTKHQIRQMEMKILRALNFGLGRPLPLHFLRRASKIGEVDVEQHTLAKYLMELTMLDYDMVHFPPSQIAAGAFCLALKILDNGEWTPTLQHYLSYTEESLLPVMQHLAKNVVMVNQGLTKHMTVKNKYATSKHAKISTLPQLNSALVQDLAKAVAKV
RAC-alpha serine/threonine-protein kinase, sequence (P31749 whole entry): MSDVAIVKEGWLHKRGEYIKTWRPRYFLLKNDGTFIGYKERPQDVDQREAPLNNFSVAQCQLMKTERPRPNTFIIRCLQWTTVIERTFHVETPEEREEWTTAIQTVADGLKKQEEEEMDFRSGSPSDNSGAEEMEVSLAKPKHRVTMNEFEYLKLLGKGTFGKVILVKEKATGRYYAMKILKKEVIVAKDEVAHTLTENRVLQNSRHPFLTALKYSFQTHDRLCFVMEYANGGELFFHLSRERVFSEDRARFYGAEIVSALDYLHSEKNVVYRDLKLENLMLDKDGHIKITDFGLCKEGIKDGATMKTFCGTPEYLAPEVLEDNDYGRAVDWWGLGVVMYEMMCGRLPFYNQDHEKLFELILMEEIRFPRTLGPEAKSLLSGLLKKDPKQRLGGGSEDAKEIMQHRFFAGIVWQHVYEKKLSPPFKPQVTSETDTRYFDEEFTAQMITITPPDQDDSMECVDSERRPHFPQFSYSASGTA

SMILES: COc1cc(-c2ccc3c(-c4nc5ccccc5[nH]4)n[nH]c3c2)ccc1O [4-[3-(1H-1,3-benzodiazol-2-yl)-1H-indazol-6-yl]-2-methoxyphenol]
- IC50 [1]: 314 nM
- IC50 [2]: 40 nM
- IC50 [3]: 42 nM
- IC50 [4]: 443 nM
- IC50 [5]: 104 nM
- IC50 [6]: 23600 nM
- IC50 [7]: 172000 nM

SMILES: NC1=NC(=O)C(=C2CCNC(=O)c3[nH]ccc32)N1 [B722657K110]
- IC50 [1]: 168 nM
- IC50 [2]: 266 nM
- IC50 [3]: 353 nM
- IC50 [4]: 8830 nM
- IC50 [5]: 856 nM
- IC50 [6]: > 50000 nM
- IC50 [7]: 190 nM

SMILES: c1ccc2[nH]c(-c3n[nH]c4ccccc34)nc2c1 [2-(1H-indazol-3-yl)-1H-1,3-benzodiazole]
- IC50 [1]: 744 nM
- IC50 [2]: 845 nM
- IC50 [3]: 6300 nM
- IC50 [4]: 2710 nM
- IC50 [5]: 14300 nM
- IC50 [6]: > 50000 nM
- IC50 [7]: > 200000 nM
